Literature values as cited in patent US5744455A (priority 1993, dated 1998).
Read-outs that look alike come from different tables or passages of the source. Each block holds one compound with its values, some of them ahead of it.

What was measured:
[1] = system: cardiac glutathione peroxidase
myocardial lesions = conditions: doxorubicin alone
[2] = system: doxorubicin cardiotoxicity; conditions: non-cancer-bearing animals
[3] = not given; remark: listed apart in the source
human tumors = conditions: single agents
[4] = system: doxorubicin-induced toxicity; conditions: humans and other species
[5] = not given; remark: listed apart in the source
heart lesions = conditions: doxorubicin and ICRF 187
[6] = system: chronic daunorubicin cardiotoxicity; conditions: 30 minutes prior to daunorubicin, 12.5 and 25 mg/kg
[7] = not given; remark: listed apart in the source
[8] = system: daunorubicin cardiotoxicity; conditions: ICRF 187 given prior to daunorubicin
[9] = system: chronic cardiotoxicity induced by Adriamycin; conditions: ICRF 187 12.5 mg/kg 30 minutes prior to Adriamycin 1.0 mg/kg

Compound: COc1cccc2c1C(=O)c1c(O)c3c(c(O)c1C2=O)C[C@@](O)(C(=O)CO)C[C@@H]3O[C@H]1C[C@H](N)[C@H](O)[C@H](C)O1 [doxorubicin]
cardiac glutathione peroxidase activity [1]: directly depresses cardiac glutathione peroxidase activity
risk for development of cardiotoxicity (accumulated doses greater than 450 mg/m^2): greater than 10%
alopecia (hair loss) (human, in vivo): occurs frequently
nausea and vomiting (human, in vivo): occur regularly
peak of myelosuppression (human, in vivo): approximately 14±2 days
recovery from myelosuppression (human, in vivo): 15 to 18 days
cardiotoxicity on prolonged infusion (infusion over extended periods, e.g., 96 hours): small but measurable decrease in cardiotoxicity
patients developing unacceptable clinical toxicity (total cumulative dose 450 mg/m^2): 5-10%
animals with myocardial lesions (myocardial lesions): eight of nine

solubility [3]: low solubility
Compound: CC(CN1CC(=O)NC(=O)C1)N1CC(=O)NC(=O)C1 (racemic) [ICRF 159, (±)-1,2-bis(3,5-dioxopiperazinyl-1-yl)propane]
doxorubicin cardioprotection [2]: shown promise
anti-tumor effect as single agent (human tumors): little effect against human tumors

Compound: O=C(O)CN(CCN(CC(=O)O)CC(=O)O)CC(=O)O [EDTA, ethylenediaminetetraacetic acid]
erythrocyte ghost destruction by iron-doxorubicin complex (erythrocyte ghost): can prevent erythrocyte ghost destruction

Compound: CC(=O)N[C@@H](CS)C(=O)O [N-acetyl cysteine]
cardioprotection against doxorubicin-induced toxicity [4]: did not result in significant cardioprotection

Compound: Cc1c(C)c2c(c(C)c1O)CCC(C)(CCCC(C)CCCC(C)CCCC(C)C)O2 (stereo not drawn) [Alpha-tocopherol]
cardioprotection against doxorubicin-induced toxicity [4]: did not result in significant cardioprotection

oral absorption [5]: very poor absorption
Compound: O=c1[nH]cc(F)c(=O)[nH]1 [Fluorouracil, fluorouracil]

Compound: C[C@@H](CN1CC(=O)NC(=O)C1)N1CC(=O)NC(=O)C1 [ICRF 187, (+)-1,2-bis(3,5-dioxopiperazinyl-1-yl)propane]
doxorubicin cardioprotection [2]: shown promise
solubility [3]: more water soluble
dogs with no abnormalities in the hearts (heart lesions): three of six
dogs with minimal heart lesions (heart lesions; six dogs): three
chronic daunorubicin cardiotoxicity [6]: reduced
SGOT and SGPT, vomiting, alopecia ([7]; 1500 mg/m^2): mild elevations of SGOT (serum glutamate-oxalate transaminase) and SGPT (serum glutamic-pyruvic transaminase), occasional vomiting and some alopecia
predominant adverse effects ([7]; 1500 mg/m^2): leukopenia and thrombocytopenia
dose limiting toxicity ([7]; administered three times daily, every three days, only chemotherapeutic agent): 1500 mg/m^2
dose limiting toxicity ([7]; daily, for three consecutive days every three weeks): 1500 mg/m^2
daunorubicin lethality and cardiotoxicity [8]: a reduction of lethality and cardiotoxicity
anti-tumor effect as single agent (human tumors): little effect against human tumors
Adriamycin-induced chronic cardiotoxicity [9]: prevented cardiotoxicity in all treated animals
